Measurements reported in paper PMC6879241 (Antimicrobial Agents and Chemotherapy, 2019).
pIC50: −log10 of the molar value. Values after ≈ are worked out from the molar mass of the structure shown. Values joined by “and” are separate entries in the source; they are usually repeats but may differ in a detail not shown here. Identical values can stand only once. Like-named read-outs stand apart in the source and are kept apart here.

Legend:
B. pseudomallei = assay: microbe, parasite or virus in culture; format: cell-based, Burkholderia pseudomallei; settings: for MIC50 / MIC90: Burkholderia pseudomallei
E. coli ATCC 25922 = assay: microbe, parasite or virus in culture; format: cell-based; settings: Escherichia coli, ATCC25922
P. aeruginosa ATCC 27853 = assay: microbe, parasite or virus in culture; format: cell-based; settings: Pseudomonas aeruginosa, ATCC27853
S. aureus DNA gyrase = S. aureus DNA gyrase (Staphylococcus aureus, UniProt P0A0K8+P20831); assay: biochemical
S. aureus Topo IV = S. aureus Topo IV (Staphylococcus aureus, UniProt P0C1S7+P0C1U9); assay: biochemical
E. coli DNA gyrase = E. coli DNA gyrase (Escherichia coli, UniProt P0AES4+P0AES6); assay: biochemical
[1] = target: Quinolone-resistant E. coli gyrase (Escherichia coli, UniProt P0AES4+P0AES6); format: biochemical; settings: read-out: IC50, E. coli quinolone-resistant gyrase
E. coli Topo IV = E. coli Topo IV (Escherichia coli, UniProt P0AFI2+P20083); assay: biochemical
human Topo I = human Topo I (Homo sapiens, UniProt P11387); assay: biochemical
B. anthracis = assay: microbe, parasite or virus in culture; format: cell-based, Bacillus anthracis
F. tularensis = assay: microbe, parasite or virus in culture; format: cell-based, Francisella tularensis
Y. pestis = assay: microbe, parasite or virus in culture; format: cell-based, Yersinia pestis
B. mallei = assay: microbe, parasite or virus in culture; format: cell-based, Burkholderia mallei; settings: for MIC50 / MIC90: Burkholderia mallei
[2] = tested on: B. pseudomallei strain 1026b; format: cell-based, Burkholderia pseudomallei
[3] = tested on: B. pseudomallei 1026b-based efflux-proficient and -compromised strains; assay: microbe, parasite or virus in culture; format: cell-based; settings: Burkholderia pseudomallei, read-out: MIC under efflux by BpeEF-OprC
[4] = tested on: intracellular B. pseudomallei 1026b; assay: microbe, parasite or virus in culture; format: cell-based, Burkholderia pseudomallei
[5] = tested on: B. pseudomallei strain 1026b; set-up: species or system BALB/c mice; settings: mouse, in vivo
[6] = not told
[7] = tested on: B. pseudomallei strain 1026b; set-up: species or system BALB/c mice; settings: mouse, in vivo; remark: listed apart in the source
[8] = tested on: intracellular B. pseudomallei 1026b; settings: cited from earlier work

human Topo I, sequence (P11387 whole entry): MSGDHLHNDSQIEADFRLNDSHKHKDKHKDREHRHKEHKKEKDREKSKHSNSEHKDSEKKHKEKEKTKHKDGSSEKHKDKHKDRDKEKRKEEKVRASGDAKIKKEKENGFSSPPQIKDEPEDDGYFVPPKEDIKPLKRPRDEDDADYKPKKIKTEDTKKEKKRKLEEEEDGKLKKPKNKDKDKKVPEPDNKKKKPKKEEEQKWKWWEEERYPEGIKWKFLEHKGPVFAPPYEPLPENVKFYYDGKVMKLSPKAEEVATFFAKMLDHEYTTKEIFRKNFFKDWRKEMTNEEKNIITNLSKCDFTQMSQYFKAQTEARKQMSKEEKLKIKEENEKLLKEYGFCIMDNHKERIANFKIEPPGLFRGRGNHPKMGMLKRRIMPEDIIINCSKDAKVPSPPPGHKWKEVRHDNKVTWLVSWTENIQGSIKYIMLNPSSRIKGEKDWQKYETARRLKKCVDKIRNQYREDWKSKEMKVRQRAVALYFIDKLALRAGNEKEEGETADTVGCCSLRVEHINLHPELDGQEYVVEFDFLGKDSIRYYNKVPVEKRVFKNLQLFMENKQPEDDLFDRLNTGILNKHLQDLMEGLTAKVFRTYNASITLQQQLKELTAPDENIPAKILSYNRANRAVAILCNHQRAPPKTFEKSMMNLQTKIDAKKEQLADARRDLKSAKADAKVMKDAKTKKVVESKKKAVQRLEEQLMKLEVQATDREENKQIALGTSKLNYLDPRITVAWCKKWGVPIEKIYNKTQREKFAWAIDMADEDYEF
E. coli Topo IV, sequence (P0AFI2 whole entry): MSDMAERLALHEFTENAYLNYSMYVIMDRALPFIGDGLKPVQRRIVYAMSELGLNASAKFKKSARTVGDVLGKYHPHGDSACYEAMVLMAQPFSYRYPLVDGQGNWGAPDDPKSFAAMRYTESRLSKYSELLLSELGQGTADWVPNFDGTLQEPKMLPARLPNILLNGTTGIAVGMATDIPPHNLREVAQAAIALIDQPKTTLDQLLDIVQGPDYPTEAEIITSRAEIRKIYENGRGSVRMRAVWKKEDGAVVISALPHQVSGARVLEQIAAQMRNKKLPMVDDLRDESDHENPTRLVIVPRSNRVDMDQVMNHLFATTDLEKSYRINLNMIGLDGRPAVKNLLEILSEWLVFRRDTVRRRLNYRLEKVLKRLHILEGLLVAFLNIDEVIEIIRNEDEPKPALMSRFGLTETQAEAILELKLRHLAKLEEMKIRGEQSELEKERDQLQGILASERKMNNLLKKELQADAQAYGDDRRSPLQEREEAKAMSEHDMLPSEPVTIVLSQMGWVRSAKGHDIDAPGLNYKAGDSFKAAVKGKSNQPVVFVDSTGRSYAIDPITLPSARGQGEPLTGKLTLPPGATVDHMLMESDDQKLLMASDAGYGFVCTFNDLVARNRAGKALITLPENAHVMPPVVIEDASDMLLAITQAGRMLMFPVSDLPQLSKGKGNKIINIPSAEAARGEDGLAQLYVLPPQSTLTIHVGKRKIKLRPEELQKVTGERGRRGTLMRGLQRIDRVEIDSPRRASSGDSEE
E. coli Topo IV, sequence (P20083 whole entry): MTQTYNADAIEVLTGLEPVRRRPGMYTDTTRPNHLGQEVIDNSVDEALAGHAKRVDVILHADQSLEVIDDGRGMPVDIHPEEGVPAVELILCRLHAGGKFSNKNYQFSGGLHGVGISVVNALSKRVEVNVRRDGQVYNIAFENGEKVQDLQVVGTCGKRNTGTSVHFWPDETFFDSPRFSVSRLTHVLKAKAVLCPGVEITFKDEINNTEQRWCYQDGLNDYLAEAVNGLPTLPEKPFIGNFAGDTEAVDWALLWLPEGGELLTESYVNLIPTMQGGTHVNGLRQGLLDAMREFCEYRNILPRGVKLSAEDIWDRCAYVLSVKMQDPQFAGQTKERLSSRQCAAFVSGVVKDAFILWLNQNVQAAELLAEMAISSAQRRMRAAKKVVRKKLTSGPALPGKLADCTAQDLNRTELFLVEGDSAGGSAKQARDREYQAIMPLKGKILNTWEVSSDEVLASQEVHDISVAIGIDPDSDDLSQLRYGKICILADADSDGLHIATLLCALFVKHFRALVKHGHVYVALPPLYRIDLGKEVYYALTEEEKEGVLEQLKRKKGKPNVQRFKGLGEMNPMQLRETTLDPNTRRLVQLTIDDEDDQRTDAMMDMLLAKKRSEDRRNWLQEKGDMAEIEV

In the case of `C[C@H]1c2cccc(O)c2C(=O)C2=C(O)[C@]3(O)C(=O)C(C(N)=O)=C(O)[C@@H](N(C)C)[C@@H]3[C@@H](O)[C@@H]21` [Doxycycline, doxycycline], the MIC range (B. pseudomallei) was ≤0.06 to 32 µg/mL, the MIC50 (B. pseudomallei) was 0.5 µg/mL (≈ 1.13 µM) and the MIC90 (B. pseudomallei) was 4 µg/mL (≈ 9 µM). For the same compound, the MIC (E. coli ATCC 25922) was 1 µg/mL (≈ 2.25 µM) and the MIC (P. aeruginosa ATCC 27853) was > 16 µg/mL.

In the case of `Cc1c(-c2cc(F)c(N)cc2F)ccn2c(=O)c(C(=O)O)cc(C3CC3)c12` [GC-072], the pIC50 (S. aureus DNA gyrase) was 5.70, the pIC50 (S. aureus Topo IV) was 4.52 to 5.40 and the pIC50 (E. coli DNA gyrase) was 5.82 to 6.74. For the same compound, the pIC50 [1] was 5.82 to 5.89, the pIC50 (E. coli Topo IV) was 5.07 to 5.37 and the pIC50 (human Topo I) was < 4.00. The MIC range (B. pseudomallei) was ≤0.008 to 1 µg/mL, the “share of strains with MICs higher than 0.5 μg/ml” value (B. pseudomallei) was 7% and the MIC50 (B. pseudomallei) was 0.12 µg/mL (≈ 0.324 µM). The MIC90 (B. pseudomallei) was 0.25 µg/mL (≈ 0.675 µM), the MIC range (B. anthracis) was ≤0.0005 to 0.004 µg/mL and the MIC50 (B. anthracis; Bacillus anthracis) was 0.001 µg/mL (≈ 0.0027 µM). For the same compound, the MIC90 (B. anthracis; Bacillus anthracis) was 0.002 µg/mL (≈ 0.0054 µM), the MIC range (F. tularensis) was ≤0.0005 to 0.015 µg/mL and the MIC50 (F. tularensis; Francisella tularensis) was ≤ 0.0005 µg/mL. For the same compound, the MIC90 (F. tularensis; Francisella tularensis) was ≤ 0.0005 µg/mL, the MIC range (Y. pestis) was 0.002 to 0.03 µg/mL and the MIC50 (Y. pestis; Yersinia pestis) was 0.008 µg/mL (≈ 0.0216 µM). The MIC90 (Y. pestis; Yersinia pestis) was 0.015 µg/mL (≈ 0.0405 µM), the MIC range (B. mallei) was ≤0.004 to 0.5 µg/mL and the MIC50 (B. mallei) was 0.015 µg/mL (≈ 0.0405 µM). For the same compound, the MIC90 (B. mallei) was 0.12 µg/mL (≈ 0.324 µM), the “MIC for B. pseudomallei 1026b (time-kill study)” value [2] was 0.125 µg/mL and the “share of the full killing effect observed within 5 h” value [2] was “more than 75%”. The MIC [3] was 0.5 to 1 µg/mL (≈ 1.35 to 2.7 µM), the MIC (E. coli ATCC 25922) was ≤ 0.004 µg/mL and the MIC (P. aeruginosa ATCC 27853) was 1 µg/mL (≈ 2.7 µM). The “viable intracellular bacteria 24 h after initiation of treatment” value [4] was “no viable bacteria detectable”, the MIC ([4]; Burkholderia pseudomallei, read-out: MIC for B. pseudomallei strain 1026b measured for the intracellular experiment) was 0.25 µg/mL (≈ 0.675 µM) and the “animals that survived to the end of the experiment” value [5] was “four”. For the same compound, the median survival time [5] was 4.5 days and 4.75 days and 5.63 days, the “overall survival rate of the treated groups” value [5] was 87% and the survival [5] was 90% and 80%. For the same compound, the permeability [6] was “good”.

For `O=C(O)c1cn(C2CC2)c2cc(N3CCNCC3)c(F)cc2c1=O` [Ciprofloxacin, ciprofloxacin], the pIC50 (human Topo I) was < 4.00, the MIC (E. coli ATCC 25922) was ≤ 0.008 µg/mL and the MIC (P. aeruginosa ATCC 27853) was 0.25 µg/mL (≈ 0.754 µM).

Compound `CC[C@H]1OC(=O)[C@H](C)[C@@H](O[C@H]2C[C@@](C)(OC)[C@@H](O)[C@H](C)O2)[C@H](C)[C@@H](O[C@@H]2O[C@H](C)C[C@H](N(C)C)[C@H]2O)[C@](C)(O)C[C@@H](C)CN(C)[C@H](C)[C@@H](O)[C@]1(C)O` [Azithromycin] has an MIC range (B. mallei) of 0.12 to 1 µg/mL, an MIC50 (B. mallei) of 0.5 µg/mL (≈ 0.668 µM) and an MIC90 (B. mallei) of 0.5 µg/mL (≈ 0.668 µM).

In the case of `CC(C)(O/N=C(\C(=O)N[C@@H]1C(=O)N2C(C(=O)[O-])=C(C[n+]3ccccc3)CS[C@H]12)c1csc(N)n1)C(=O)O` [Ceftazidime, ceftazidime], the MIC50 (B. pseudomallei) was 1 µg/mL (≈ 1.83 µM), the MIC90 (B. pseudomallei) was 64 µg/mL (≈ 117 µM) and the MIC (E. coli ATCC 25922) was 0.25 µg/mL (≈ 0.457 µM). The MIC (P. aeruginosa ATCC 27853) was 4 µg/mL (≈ 7.32 µM), the survival [7] was 100% and the “effect on intracellular survival of B. pseudomallei in macrophages” value [8] was “no effect”.

With `N#Cc1c(N2C[C@@H]3NCCO[C@H]3C2)c(F)cc2c(=O)c(C(=O)O)cn(C3CC3)c12` [Finafloxacin, finafloxacin, reference compound] the “MIC 50%” value (B. pseudomallei) was 4 µg/mL (≈ 10 µM), the “MIC 90%” value (B. pseudomallei) was 8 µg/mL (≈ 20.1 µM) and the “MIC 50%” value (B. anthracis) was 0.06 µg/mL (≈ 0.151 µM). The “MIC 90%” value (B. anthracis) was 0.12 µg/mL (≈ 0.301 µM), the MIC range (B. anthracis) was 0.03 to 0.12 µg/mL and the “MIC 50%” value (F. tularensis) was ≤0.004 µg/mL. For the same compound, the “MIC 90%” value (F. tularensis) was 0.008 µg/mL (≈ 0.0201 µM), the MIC range (F. tularensis) was ≤0.004 to 0.12 µg/mL and the “MIC 50%” value (Y. pestis) was 0.06 µg/mL (≈ 0.151 µM). The “MIC 90%” value (Y. pestis) was 0.12 µg/mL (≈ 0.301 µM), the MIC range (Y. pestis) was 0.015 to 0.25 µg/mL and the “MIC 50%” value (B. mallei) was 0.25 µg/mL (≈ 0.628 µM). For the same compound, the “MIC 90%” value (B. mallei) was 2 µg/mL (≈ 5.02 µM) and the MIC range (B. mallei) was 0.015 to 2 µg/mL.

In the case of `C[C@@H](O)[C@H]1C(=O)N2C(C(=O)O)=C(S[C@@H]3CN[C@H](C(=O)N(C)C)C3)[C@H](C)[C@H]12` [Meropenem, meropenem], the MIC range (B. pseudomallei) was ≤0.06 to 4 µg/mL, the MIC50 (B. pseudomallei) was 0.5 µg/mL (≈ 1.3 µM) and the MIC90 (B. pseudomallei) was 1 µg/mL (≈ 2.61 µM).
